Test results reported in ChEMBL document CHEMBL4014262, “Phloroglucinol Derivatives with Protein Tyrosine Phosphatase 1B Inhibitory Activities from Eugenia jambolana Seeds” (J Nat Prod, 2017).

These compounds were tested against T1, Tyrosine-protein phosphatase non-receptor type 1 (Homo sapiens, UniProt P18031) (assay: Inhibition of GST-tagged PTP1B (1 to 321 residues) (unknown origin) using p-NPP as substrate preincubated for 10 mins followed by substrate addition measured after 30 mins).
T1 sequence (P18031 whole entry): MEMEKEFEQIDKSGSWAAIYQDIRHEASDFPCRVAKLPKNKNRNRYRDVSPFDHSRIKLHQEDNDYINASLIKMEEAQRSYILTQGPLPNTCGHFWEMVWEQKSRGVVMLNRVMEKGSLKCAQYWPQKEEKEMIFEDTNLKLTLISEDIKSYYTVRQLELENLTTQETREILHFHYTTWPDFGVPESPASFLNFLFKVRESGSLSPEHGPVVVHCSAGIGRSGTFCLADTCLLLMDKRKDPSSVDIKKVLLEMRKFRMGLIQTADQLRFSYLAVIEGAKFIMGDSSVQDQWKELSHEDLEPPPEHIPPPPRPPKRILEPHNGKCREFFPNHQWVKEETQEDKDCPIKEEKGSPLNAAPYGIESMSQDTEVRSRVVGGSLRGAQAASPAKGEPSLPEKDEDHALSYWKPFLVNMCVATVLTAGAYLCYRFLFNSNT
`CC/C=C\C/C=C\C/C=C\CCCCCCCC1(O)CC(=O)c2c(O)c(C)c(O)c(C)c2O1` (stereo unspecified) was tested, and the IC50 was 1600 nM. Compound `CCCCC/C=C\C/C=C\CCCCCCCC1(O)CC(=O)c2c(O)c(C)c(O)c(C)c2O1` (stereo unspecified) has an IC50 of 2700 nM. With `CCCC/C=C\CCCCCCCCCC1(O)CC(=O)c2c(O)c(C)c(O)c(C)c2O1` (stereo unspecified) the IC50 was 1800 nM. Compound `CC/C=C\C/C=C\C/C=C\CCCCCCCC1(O)CC(=O)c2c(O)cc(O)cc2O1` (stereo unspecified) has an IC50 of 450 nM. With `CCCCC/C=C\C/C=C\CCCCCCCC1(O)CC(=O)c2c(O)cc(O)cc2O1` (stereo unspecified) the IC50 was 420 nM. `CCCCCCCCCCCCCCCC1(O)CC(=O)c2c(O)cc(O)cc2O1` (stereo unspecified) was tested, and the IC50 was 2000 nM.
